Where two headings read alike, the source gives them in different places.
Assays:
SIRT5 [1] = target: T1, SIRT5 (Homo sapiens, UniProt Q9NXA8); details: read-out: IC50 Pub., Succinyl; cited from earlier work
T1 sequence (Q9NXA8 37-310): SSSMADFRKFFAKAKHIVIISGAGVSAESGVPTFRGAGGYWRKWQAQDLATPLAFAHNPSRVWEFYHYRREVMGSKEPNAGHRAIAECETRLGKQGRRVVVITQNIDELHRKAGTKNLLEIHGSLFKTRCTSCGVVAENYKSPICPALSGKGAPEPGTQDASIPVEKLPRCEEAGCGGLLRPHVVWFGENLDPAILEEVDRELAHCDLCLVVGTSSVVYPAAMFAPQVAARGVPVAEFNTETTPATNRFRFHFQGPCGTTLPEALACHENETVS

SIRT5 [2] = target: T1, SIRT5; test: SIRTify cell-free inhibitor assay, SIRT5; details: for IC50: 250 μM NAD+
SIRT5 [3] = target: T1, SIRT5; test: SIRTify in live; format: cell-based; details: intact HepG2-LgBiT cells with furimazine
SIRT5 [4] = target: T1, SIRT5; test: SIRTify in live; format: cell-based; details: intact KG1a-LgBiT cells with furimazine
Sirt5 [5] = target: T2, Sirt5 (Danio rerio, UniProt Q6DHI5); test: Endogenous Sirt5 desuccinylation activity in zebrafish embryos; format: in vivo, zebrafish (Danio rerio); details: embryos injected with LgBiT and peptide; endurazine
T2 sequence (Q6DHI5 33-305): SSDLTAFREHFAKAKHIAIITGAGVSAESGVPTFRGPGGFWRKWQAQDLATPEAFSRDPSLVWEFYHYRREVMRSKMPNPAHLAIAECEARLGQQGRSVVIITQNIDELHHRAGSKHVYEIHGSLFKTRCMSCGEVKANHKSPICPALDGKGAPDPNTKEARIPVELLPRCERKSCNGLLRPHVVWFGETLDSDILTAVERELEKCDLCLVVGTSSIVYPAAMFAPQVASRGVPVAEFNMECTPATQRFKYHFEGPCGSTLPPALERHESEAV

## O=C(O)CCNC(=S)NCCCC[C@H](NS(=O)(=O)c1cccc(F)c1)C(=O)N[C@@H](Cc1c[nH]c2ccccc12)C(=O)NC1CCC1
SIRT5 [1]
  IC50: 110 nM
SIRT5 [2]
  lower IC50 for deglutarylase activity compared to desuccinylase activity: approximately 3 fold
SIRT5 [2]; Glutaryl substrate (deglutarylase activity)
  IC50: 47 ± 2 nM
SIRT5 [2]; Succinyl substrate (desuccinylase activity)
  IC50: 102 ± 8 nM

## CC[C@H](C)[C@H](NC(=O)[C@H](CCCCN)NC(=O)[C@H](CCCCN)NC(=O)[C@H](Cc1ccccc1)NC(=O)[C@H](CC(C)C)NC(=O)[C@H](CCCNC(=N)N)NC(=O)[C@H](Cc1c[nH]c2ccccc12)NC(=O)CNC(=O)[C@H](CO)NC(=O)[C@@H](N)C(C)C)C(=O)N[C@@H](CO)C(=O)N[C@@H](CCCNC(=N)N)C(=O)N[C@@H](CCCNC(=N)N)C(=O)N[C@@H](CCCNC(=N)N)C(=O)N[C@@H](CCCNC(=N)N)C(=O)O [p86-R4]
SIRT5 [3]
  luminescence versus peptide concentration (cell permeability): directly proportional to p86-R4 concentration
SIRT5 [4]
  luminescence versus peptide concentration (cell permeability): directly proportional to p86-R4 concentration

## H2N-VSGWRLF(KGlut)(KGlut)ISRRRR-OH [p86-Glutaryl8,9-R4]
SIRT5 [3]
  luminescence versus peptide concentration (cell permeability): much lower signal
SIRT5 [4]
  luminescence versus peptide concentration (cell permeability): much lower signal

## H2N-VSGWRLF(KSuc)(KSuc)ISRRRR-OH [p86-Succinyl8,9-R4]
SIRT5 [3]
  luminescence versus peptide concentration (cell permeability): much lower signal
SIRT5 [4]
  luminescence versus peptide concentration (cell permeability): much lower signal
Sirt5 [5]
  luminescence over 90 minutes (endogenous desuccinylation): slight increase in luminescence
